Measurements from patent US9464064B2, “HCV helicase inhibitors and methods of use thereof” (University of Kansas, priority 2011, dated 2016).
Where two headings read alike, the source gives them in different places.

Legend:
[1] = Aqueous solubility (direct UV kinetic); format: physicochemical; details: kinetic from dmso stock
Experimental: Solubility analysis was performed using a direct UV kinetic solubility method in a 96-well format. All liquid dispense and transfer steps were performed with the FREEDOM EVO automated liquid handler (Tecan, US). Solubility measurements were performed in an aqueous buffer solution (PRISMA HT, pION Inc.) at pH 5.0, 6.2 and 7.4, in duplicate. Solubility measurements were also performed in 1×PBS pH 7.4, and in MOPS buffer pH 6.5. Samples were incubated at room temperature for a minimum of […] to achieve equilibrium, then filtered to remove any precipitate formed. The concentration of the compounds was measured by UV absorbance (250-498 nm) using the […] M200 (Tecan, US) and compared to the spectra of the precipitation-free reference solutions. Spectroscopically pure 1-Propanol (Sigma) was used as a cosolvent to suppress precipitation in the reference solutions. The solubility of each compound was determined using pSOL Evolution Plus software v3.2 (pION Inc) and was expressed as the concentration (μg/mL) of a solute in a saturated solution. Diclofenac Na (highly soluble) and Dipyridamole (poorly to moderately soluble) were used as standards. Standards and test compound stocks were made in 100% DMSO. […]

NS3h_2a(JFH1) = target: T1, NS3h_2a(JFH1) (Hepatitis C virus genotype 2a, UniProt Q99IB8); test: NS3 intrinsic protein fluorescence titration; format: binding, hepatitis C virus genotype 2a(JFH1); details: corrected for inner filter effects
T1 construct: truncated C-terminally His-tagged NS3 proteins lacking the N-terminal protease, called NS3h; His-tag (C); made in house
Experimental: Compound effects on NS3 intrinsic protein fluorescence were determined by adding aliquots of each compound (1 μl of a 1 mM solution in DMSO) sequentially to 50, 100, or 200 nM of NS3h_2a(JFH1), or 100 nM scNS4A-NS3 dissolved in 2 ml of 25 mM MOPS pH 7, 1.25 mM MgCl2, 0.01% (v/v) TWEEN 20 and 0.3 mM DTT. The titrations were performed in a stirred, temperature-controlled 1 cm cuvette at 23° C. in a Cary Eclipse Fluorescence Spectrophotometer (Agilent Technologies). Intrinsic protein fluorescence was recorded by exciting the sample at 280 nm and reading emission at 340 nm. Excitation and emission slit widths were set to 5 and 10 nm, respectively. All raw fluorescence data were corrected for sample dilution and inner filter effects using Equation 5: Fc=Fobs(V0+Vi)/V0*10^(Aex+Aem/2) (Equation 5) where Fc is corrected fluorescence, Fobs is observed fluorescence, V0 is initial sample volume, Vi is total volume of titrant added, Aex is the absorbance of the solution at the excitation wavelength (280 nm), and Aem is the absorbance of the solution at the emission wavelength (340 nm). Absorbance was calculated at each point in the titrations from extinction coefficients for each compound in titration buffer, which were calculated at 280 nm and 340 nm using four different compound concentrations. […] Fc=F0−(ΔFmax*[…]/(Kd^n+(C)^n)) (Equation 6) In equation 6, […], F0 is fluorescence in the absence of compound, ΔFmax is the maximum change in fluorescence, n is the Hill coefficient, and C is compound concentration.
To examine the direct interaction of the compounds with NS3, the effect of a select few compound on NS3 intrinsic protein fluorescence was analyzed. This technique has been widely used to monitor the interaction of NS3 with its nucleic acid ligands (Lam, et al. (2004) Nucleic Acids Res. 32:4060-4070; Levin & Patel (2002) J. Biol. Chem. 277:29377-29385; Preugschat, et al. (1996) J. Biol. Chem. 271:24449-24457) and other small molecules (Belon, et al. (2010) supra). […] Of note is the fact that, unlike compounds that simply compete for the nucleic acid binding site (e.g., (BIP)2B; Belon, et al. (2010) supra), the primuline derivatives bound NS3h cooperatively as evident from their sigmoid binding isotherms and Hill coefficients greater than one (Equation 6). When compounds were tested against scNS4A-NS3, binding again was detected and apparent affinity for the full-length complex was about 5 times higher than it was for NS3h.

MBHA DNA substrate = test: Fluorescent intercalation displacement (FID) assay, ethidium bromide; format: binding; details: FID; mean ± SD; read-out: DNA Binding (Ethidium Bromide) EC50
Experimental: Fluorescent intercalation displacement (FID) assays (Boger, et al. (2001) J. Am. Chem. Soc. 123:5878-5891) were used to measure the ability of a compound to bind the MBHA substrate. The concentration at which half the ethidium bromide is displaced (EC50) was determined using the different conditions as above to more closely mimic the conditions of a standard helicase assay. Each 100 μL reaction contained 25 mM MOPS pH 6.5, 0.16 μM MBHA DNA substrate (lacking Cy5 and IBQ-RQ modifications), 2 μM ethidium bromide, and various concentrations of test compound. Fluorescence of ethidium bromide was monitored using excitation and emission wavelengths of 545 and 595 nm, respectively, on a Cary Eclipse fluorescence spectrophotometer in white 96-well plates. The amount of ethidium bromide-DNA complex fluorescence was used to estimate the ability of compounds to bind DNA, and therefore displace the fluorescent intercalator (ethidium bromide).
In Equation 4, Fc is the fluorescence in the presence of the compound, F(−) is the average DMSO-only negative controls, and F(+) is the average positive controls (100 μM berenil). EC50 values were from a normalized dose-response curve.
These twelve hits were then subjected to a counterscreen designed to independently identify DNA binding compounds using a modified fluorescent intercalator displacement (FID) assay (Boger, et al. (2001) supra). The FID assay used ethidium bromide to judge a compound's ability to bind DNA and was based on the assumption that a DNA binding compound would displace a fluorescent DNA intercalating agent, leading to an observable decrease in observed fluorescence. Compounds were tested at 1.5 μM in the presence of the 25 base pair substrate used in the helicase assays.

[2] = aqueous with cosolvent or surfactant or cyclodextrin, mock assay matrix (MOPS, TWEEN 20, 5% DMSO) at pH 6.5, read-out: solubility

T1 sequence (Q99IB8 1196-1661): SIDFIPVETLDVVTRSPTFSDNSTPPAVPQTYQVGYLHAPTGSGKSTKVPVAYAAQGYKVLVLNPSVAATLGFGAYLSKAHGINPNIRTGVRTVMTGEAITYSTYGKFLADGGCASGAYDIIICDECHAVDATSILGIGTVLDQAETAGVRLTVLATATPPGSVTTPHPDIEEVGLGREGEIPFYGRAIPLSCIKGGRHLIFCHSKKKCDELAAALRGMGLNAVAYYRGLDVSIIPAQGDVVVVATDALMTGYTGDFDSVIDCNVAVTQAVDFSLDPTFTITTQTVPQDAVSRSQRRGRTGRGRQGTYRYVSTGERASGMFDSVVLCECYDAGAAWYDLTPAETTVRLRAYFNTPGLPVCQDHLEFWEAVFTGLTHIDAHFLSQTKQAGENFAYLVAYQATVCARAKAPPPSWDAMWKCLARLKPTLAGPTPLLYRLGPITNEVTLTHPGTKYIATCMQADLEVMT

Row | SMILES | solubility [1, 2] | interaction with NS3 (intrinsic protein fluorescence) (NS3h_2a(JFH1)) | EC50 (MBHA DNA substrate) | also measured
1 | Cc1ccc2nc(-c3ccc4nc(-c5ccc(NC(=O)c6ccc(F)cc6)cc5)sc4c3)sc2c1S(=O)(=O)O.N [Compound 7, 2′-(4-(4-fluorobenzamido)phenyl)-6-methyl-[2, bibenzo[d]thiazole]-7-sulfonic acid] | 129 µM | – | – | –
2 | Cc1ccc2nc(-c3ccc4nc(-c5ccc(NC(=O)c6ccc(C(F)(F)F)cc6)cc5)sc4c3)sc2c1S(=O)(=O)O [Compound 12, 6-methyl-2′-(4-(4-(trifluoromethyl)benzamido)phenyl)-[2,6′-bibenzo[d]thiazole]-7-sulfonic acid] | – | clear interaction | – | –
3 | Cc1ccc2nc(-c3ccc4nc(-c5ccc(NC(=O)c6cccc(Cl)c6)cc5)sc4c3)sc2c1S(=O)(=O)O [Compound 17, 2′-(4-(3-chlorobenzamido)phenyl)-6-methyl-[2,6′-bibenzo[d]thiazole]-7-sulfonic acid] | 29.2 µM | clear interaction | – | solubility ([1]; 1×PBS, pH 7.4, aqueous buffer, read-out: Aqueous Solubility, PBS): 0.12 µg/mL; solubility ([1]; PRISMA HT aqueous buffer, aqueous buffer, pH 5.0, read-out: Aqueous Solubility, Prisma HT buffer): 36.7 µg/mL; solubility ([1]; PRISMA HT aqueous buffer, pH 6.2, aqueous buffer, read-out: Aqueous Solubility, Prisma HT buffer): > 60 µg/mL; solubility ([1]; PRISMA HT aqueous buffer, pH 7.4, aqueous buffer, read-out: Aqueous Solubility, Prisma HT buffer): > 60 µg/mL; solubility ([1]; mock assay matrix with TWEEN 20, 5% DMSO, pH 6.5, aqueous with cosolvent or surfactant or cyclodextrin, read-out: Aqueous Solubility, Assay Matrix): 17.8 µg/mL
4 | Cc1ccc2nc(-c3ccc4nc(-c5ccc(NC(=O)c6ccc(Cl)c(Cl)c6)cc5)sc4c3)sc2c1S(=O)(=O)O [Compound 18, 2′-(4-(3,4-dichlorobenzamido)phenyl)-6-methyl-[2,6′-bibenzo[d]thiazole]-7-sulfonic acid] | 2.6 µM | – | – | –
5 | Cc1ccc2nc(-c3ccc4nc(-c5ccc(NC(=O)c6cc(C(F)(F)F)cc(C(F)(F)F)c6)cc5)sc4c3)sc2c1S(=O)(=O)O [Compound 24, 2′-(4-(3,5-bis(trifluoromethyl)benzamido)phenyl)-6-methyl-[2,6′-bibenzo[d]thiazole]-7-sulfonic acid] | 180 µM | clear interaction | – | –
6 | Cc1ccc2nc(-c3ccc4nc(-c5ccc(NC(=O)c6cccnc6)cc5)sc4c3)sc2c1S(=O)(=O)O [Compound 31, 6-methyl-2′-(4-(nicotinamido)phenyl)-[2,6′-bibenzo[d]thiazole]-7-sulfonic acid] | – | – | – | solubility ([1]; aqueous buffer, MOPS buffer (25 mM MOPS, 1.25 mM MgCl2, 2% DMSO) at pH 6.5, read-out: solubility): > 100 µM
7 | Cc1ccc2nc(-c3ccc4nc(-c5ccc(NC(=O)c6ccc7ccccc7c6)cc5)sc4c3)sc2c1S(=O)(=O)O [Compound 33, 2′-(4-(2-naphthamido)phenyl)-6-methyl-[2,6′-bibenzo[d]thiazole]-7-sulfonic acid] | 3.7 µM | clear interaction | – | –
8 | Cc1ccc2nc(-c3ccc4nc(-c5ccc(N)cc5)sc4c3)sc2c1S(=O)(=O)O [Compound P2a, 2′-(4-aminophenyl)-6-methyl-[2,6′-bibenzo[d]thiazole]-7-sulfonic acid] | – | – | > 100 µM | –
9 | Cc1ccc2nc(-c3ccc4nc(-c5ccc6nc(-c7ccc(N)cc7)sc6c5)sc4c3)sc2c1S(=O)(=O)O [Compound P3, 2″-(4-aminophenyl)-6-methyl-[2,6′:2′,6″-terbenzo[d]thiazole]-7-sulfonic acid] | – | – | 55 ± 20 µM | –
10 | Cc1ccc2nc(-c3ccc4nc(-c5ccc6nc(-c7ccc8nc(-c9ccc(N)cc9)sc8c7)sc6c5)sc4c3)sc2c1S(=O)(=O)O [Compound P4, 2′″-(4-aminophenyl)-6-methyl-[2,6′:2″,6′″-quaterbenzo[d]thiazole]-7-sulfonic acid] | – | – | 15 ± 3 µM | –
